The target in one assay is T1, MAPK1(ERK2) enzyme (Homo sapiens, UniProt P28482).
T1 construct: purchased Invitrogen PV3313
Kind of assay: Z-Lyte Kinase Assay of ERK2. Particulars: read-out: Example 18 IC50. Type of assay: biochemical. An outline of the steps:
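FRET-based Z-LYTE assay using ERK2 kinase with Ser/Thr3 peptide; compound tested at 0.00046–1 μM final in 2% DMSO. Kinase reaction ran 1 h at 25-30° C, followed by 1 h development. The coumarin/fluorescein emission ratio (445/520 nm) gave % phosphorylation, and IC50 was fitted from inhibition relative to uninhibited control.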

For assay [1], the system named is p-RSK (Thr359) in colo205 cells. Kind of assay: p-RSK (Thr359) Acumen Assay in Colo205. Type of assay: cell-based. The settings on record: Homo sapiens, COLO 205, 1 hour compound incubation, read-out: Example 19 IC50. The essentials: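 Colo205 cells (4000/well, seeded overnight in 10% FBS) were exposed 1 hour at 37° C to compound added from a 3–0.001 μM dilution series in 5% DMSO. Cells were then fixed, permeabilised and immunostained for p-RSK Thr359, with PI counterstain. Acumen cytometry gave the percentage of positive cells, normalised to untreated wells and 3 uM GDC0994 wells, for the IC50 fit.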

pIC50: −log10 of the molar value.

T1 sequence (P28482 whole entry): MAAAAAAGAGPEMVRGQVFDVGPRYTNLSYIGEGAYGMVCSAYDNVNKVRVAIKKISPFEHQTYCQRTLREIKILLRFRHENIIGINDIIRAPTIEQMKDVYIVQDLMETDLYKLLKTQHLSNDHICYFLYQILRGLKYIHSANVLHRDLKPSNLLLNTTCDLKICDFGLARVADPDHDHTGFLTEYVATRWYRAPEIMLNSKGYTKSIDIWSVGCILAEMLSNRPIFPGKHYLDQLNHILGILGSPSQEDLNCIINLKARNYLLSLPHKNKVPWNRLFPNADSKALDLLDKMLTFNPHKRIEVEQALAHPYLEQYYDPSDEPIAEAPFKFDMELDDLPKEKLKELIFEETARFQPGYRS

The term pIC50 denotes the IC50 on a negative log10 scale, so that one unit is a factor of ten. As for `CC(C)Nc1cc(-c2cc3n(c2)CCCn2c-3nnc2C2(C(F)(F)F)CCC2)c(Cl)cn1` [Compound 230], the pIC50 at MAPK1(ERK2) enzyme was 8.00 to 8.30; in assay [1] it was below 7.00.
On the same counts, the results for `Cc1cnc(Nc2ccnn2C)nc1-c1cc2c3nnc(C4(C(F)(F)F)CCC4)n3ccn2c1` [Compound 231] are at least 8.30 and at least 7.00.
On the same counts, the results for `Cc1cn2cc(-c3ccnc(Nc4ccnn4C)n3)cc2c2nnc(C3(C(F)(F)F)CCC3)n12` [Compound 232] are at least 8.30 and at least 7.00.
On the same counts, the results for `Cc1cnc(Nc2ccnn2C)cc1-c1cc2n(c1)CCCn1c-2nnc1C1(C(F)(F)F)CC1` [Compound 233] are at least 8.30 and at least 7.00.
Regarding `Cc1cnc(Nc2ccnn2C)cc1-c1cc2n(c1)CC(C)(C)n1c-2nnc1C(F)(F)C(F)F` [Compound 234], the pIC50 was at least 8.30 at MAPK1(ERK2) enzyme and below 7.00 in assay [1].
On the same counts, the results for `Cn1nccc1Nc1cc(-c2cc3n(c2)CC2(CC2)n2c-3nnc2C(F)(F)C(F)F)c(F)cn1` [Compound 235] are 8.00 to 8.30 and at least 7.00.
On the same counts, the results for `Cc1cnc(Nc2ccnn2C)nc1-c1cc2c3nnc(C4(C(F)(F)F)CCC4)n3c(C)cn2c1` [Compound 236] are at least 8.30 and at least 7.00.
For `Cc1cnc(Nc2ccnn2C)cc1-c1cc2n(c1)CCCn1c-2nnc1C1(C(F)(F)F)CCC1` [Compound 237], in that order: at least 8.30 and at least 7.00.
Consider `Cc1cnc(Nc2ccnn2C)nc1-c1cc2n(c1)C[C@H](C)n1c-2nnc1C1(C(F)(F)F)CCC1` [Compound 238], for which the pIC50 at MAPK1(ERK2) enzyme was at least 8.30; in assay [1] it was below 7.00.
Turning to `Cc1cnc(Nc2ccnn2C)nc1-c1cc2n(c1)C[C@@H](C)n1c-2nnc1C1(C(F)(F)F)CCC1` [Compound 239], the pIC50 at MAPK1(ERK2) enzyme was at least 8.30; in assay [1] it was below 7.00.
For `[2H]C([2H])([2H])n1nccc1Nc1cc(-c2cc3n(c2)CCCn2c-3nnc2C2(C(F)(F)F)CCC2)c(C)cn1` [Compound 240], in that order: at least 8.30 and at least 7.00.
On the same counts, the results for `Cn1nccc1Nc1cc(-c2cc3n(c2)CCCn2c-3nnc2C2(C(F)(F)F)CCC2)c(F)cn1` [Compound 241] are at least 8.30 and below 7.00.
For `Cc1cnc(Nc2ccnn2C)cc1-c1cc2n(c1)CC1(CCC1)n1c-2nnc1C(F)(F)C(F)F` [Compound 242], in that order: 8.00 to 8.30 and below 7.00.
With `Cn1nccc1Nc1nccc(-c2cn3c(c2F)-c2nnc(C4(C(F)(F)F)CCC4)n2CCC3)n1` [Compound 243], the figures for the pIC50 (on MAPK1(ERK2) enzyme; in assay [1]) were at least 8.30 and below 7.00, respectively.
For `Cn1nccc1Nc1cc(-c2cc3n(c2)CCCn2c(COc4ccccc4F)nnc2-3)c(F)cn1` [Compound 244], in that order: 8.00 to 8.30 and at least 7.00.
On the same counts, the results for `Cn1nccc1Nc1nccc(-c2cn3c(c2Cl)-c2nnc(Cc4ccccc4F)n2CCC3)n1` [Compound 245] are at least 8.30 and at least 7.00.
For the molecule `Cn1nccc1Nc1nccc(-c2cn3c(c2F)-c2nnc(COc4ccccc4F)n2CCC3)n1` [Compound 246], the values for the pIC50 (at MAPK1(ERK2) enzyme; in assay [1]) were at least 8.30 and at least 7.00, respectively.
On the same counts, the results for `Cn1nccc1Nc1cc(-c2cc3n(c2)CC(C)(C)n2c(CCC(F)(F)F)nnc2-3)c(Cl)cn1` [Compound 247] are at least 8.30 and at least 7.00.
On the same counts, the results for `Cn1nccc1Nc1cc(-c2cc3n(c2)CCCn2c-3nnc2C2(C(F)(F)F)CCC2)c(C#N)cn1` [Compound 248] are 8.00 to 8.30 and below 7.00.
On the same counts, the results for `Cn1nccc1Nc1cc(-c2cc3n(c2)CC(C)(C)n2c-3nnc2C(F)(F)C(F)F)c(Cl)cn1` [Compound 249] are 8.00 to 8.30 and at least 7.00.
Turning to `Cc1cnc(Nc2ccnn2C)nc1-c1cc2n(c1)CC1(CC1)n1c-2nnc1C1(C(F)(F)F)CCC1` [Compound 250], the pIC50 at MAPK1(ERK2) enzyme was at least 8.30; in assay [1], at least 7.00.

The values above are taken from patent US12492210B2, “Tricyclic compounds and their use” (HUTCHISON MEDIPHARMA LIMITED, priority 2019, dated 2025).
